{
  "source": "patent US20070105898A1",
  "about": "“Process for the production of cilostazol” (Apotex Pharmachem Inc., priority 2005, published 2007)",
  "assay": "Particle size distribution of precipitated cilostazol particles",
  "format": "physicochemical",
  "details": "filtered, dried",
  "experimental": "A hot solution (70-75° C.) of cilostazol (23 g) in 1-methyl-2-pyrrolidinone (69 mL) was slowly added over a period of 5-10 min into water (345 mL) at 0-5° C. with stirring. The suspension was stirred at 0-5° C. for 1-2 hrs, filtered and rinsed with water (40 mL) and methanol (20 mL). The solid was dried under vacuum at 55-60° C. to give 22.1 g (yield 96%) cilostazol as a white powder. Particle size distribution: d(0.1)=0.71 micrometres, d(0.5)=5.94 mircrometres, d(0.9)=30.59 micrometres.\nA hot solution (70-75° C.) of cilostazol (20 g) in 1-methyl-2-pyrrolidinone (40 mL) was slowly added over a period of 5-10 min into toluene (250 mL) at 0-5° C. with stirring. The suspension was stirred at 0-5° C. for 1-2 hrs, filtered and rinsed with toluene (100 mL). The solid was dried under vacuum at 55-60° C. to give 18.2 g (yield 91%) cilostazol as a white powder. Particle size distribution: d(0.1)=0.80 micrometres, d(0.5)=3.90 mircrometres, d(0.9)=25.56 micrometres.",
  "key": {"[1]": {"details": "Example 2: hot 1-methyl-2-pyrrolidinone solution added into water at 0-5° C."}, "[2]": {"details": "Example 3: hot 1-methyl-2-pyrrolidinone solution added into toluene at 0-5° C."}},
  "data": [
    {"compound": "O=C1CCc2cc(OCCCCc3nnnn3C3CCCCC3)ccc2N1", "note": "[cilostazol, 6-[4-(1-cyclohexyl-1H-tetrazol-5-yl)butoxy]-3,4-dihydro-2(1H)-quinolinone]", "values": [
      {"measurement": "Particle size distribution d(0.1)", "setting": "[1]", "value": 0.71, "unit": "micrometres"},
      {"measurement": "Particle size distribution d(0.5)", "setting": "[1]", "value": 5.94, "unit": "mircrometres"},
      {"measurement": "Particle size distribution d(0.9)", "setting": "[1]", "value": 30.59, "unit": "micrometres"},
      {"measurement": "Particle size distribution d(0.1)", "setting": "[2]", "value": 0.80, "unit": "micrometres"},
      {"measurement": "Particle size distribution d(0.5)", "setting": "[2]", "value": 3.90, "unit": "mircrometres"},
      {"measurement": "Particle size distribution d(0.9)", "setting": "[2]", "value": 25.56, "unit": "micrometres"}
    ]}
  ]
}
